Results on eight compounds are retold here after PMC10095950, “Development of Cell Permeable NanoBRET Probes for the Measurement of PLK1 Target Engagement in Live Cells” (Molecules, 2023).

Like-named read-outs stand apart in the source and are kept apart here.

The test system of assay [1] is a range of cancer cell lines. Also noted: method as in as in column Ref. of Table 1 ([5]-[8],[14],[19]-[21]). The following applies: ref as in Table 1 ([5]-[8],[14],[19]-[21]), read-out: Reported Cell Proliferation IC50; cited from earlier work.
For another assay, the system named is PLK1. The following applies: ref as in Table 1 ([5],[6],[8],[14],[19],[20],[21]); read-out: Reported Enzyme Inhibition IC50 PLK1; cited from earlier work.
In the next assay the target is T1, human PLK2 (NLuc-PLK2) (Homo sapiens, UniProt Q9NYY3).
T1 construct: ORFs corresponding to UniProt isoform 1 (PLK1: P53350-1, PLK2: Q9NYY3-1, and PLK3: Q9H4B4-1); host or cells: HEK293
T1 sequence (Q9NYY3 whole entry, canonical isoform): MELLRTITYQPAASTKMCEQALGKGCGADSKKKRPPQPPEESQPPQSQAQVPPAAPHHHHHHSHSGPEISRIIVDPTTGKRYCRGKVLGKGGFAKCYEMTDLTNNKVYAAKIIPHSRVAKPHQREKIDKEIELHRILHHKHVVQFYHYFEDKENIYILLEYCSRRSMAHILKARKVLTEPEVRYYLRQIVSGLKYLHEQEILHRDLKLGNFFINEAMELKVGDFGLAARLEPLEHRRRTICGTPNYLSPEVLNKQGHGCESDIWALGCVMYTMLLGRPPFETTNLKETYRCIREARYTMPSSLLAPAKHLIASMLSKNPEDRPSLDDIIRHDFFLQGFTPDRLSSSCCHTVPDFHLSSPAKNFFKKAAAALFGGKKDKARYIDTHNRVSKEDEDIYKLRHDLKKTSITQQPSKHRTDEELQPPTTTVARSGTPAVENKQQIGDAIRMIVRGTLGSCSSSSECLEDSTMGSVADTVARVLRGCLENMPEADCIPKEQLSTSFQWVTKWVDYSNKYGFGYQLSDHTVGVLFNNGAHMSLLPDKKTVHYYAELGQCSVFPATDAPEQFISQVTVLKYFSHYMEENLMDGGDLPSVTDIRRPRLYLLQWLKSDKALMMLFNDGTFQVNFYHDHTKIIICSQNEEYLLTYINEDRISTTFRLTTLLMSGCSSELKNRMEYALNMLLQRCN
The assay is described as follows: PLK2 NanoBRET target engagement assay (NLuc-PLK2) in live HEK293 cells. In kind it is cell-based. The following applies: HEK293, probe 11 1.0 µM, 2 h; average of two technical replicates ±15%. As to the method:
(§1) HEK293 cells (ATCC) were cultured in DMEM (Gibco) + 10% FBS (Seradigm) with incubation in a humidified 37 °C/5% CO2 incubator. N- or C-terminal NLuc/PLK fusions were encoded in pFN31K expression vectors (Promega), including flexible Gly-Ser-Ser-Gly linkers between NLuc and ORFs corresponding to UniProt isoform 1 (PLK1: P53350-1, PLK2: Q9NYY3-1, and PLK3: Q9H4B4-1). Carrier DNA was encoded in pGEM-3Z vectors (Promega). For cellular BRET target engagement experiments, HEK293 cells were transfected with NLuc/PLK fusion constructs using FuGENE HD (Promega) according to the manufacturer’s protocol. Briefly, NLuc/PLK fusion constructs were diluted into Transfection Carrier DNA (Promega) at a mass ratio of 1:9 (mass/mass), after which FuGENE HD was added at a ratio of 1:3 (µg DNA: µL FuGENE HD). One part (vol) of FuGENE HD complexes thus formed was combined with 20 parts (vol) of HEK293 cells suspended at a density of 2 × 10^5 per mL, followed by incubation in a humidified 37 °C/5% CO2 incubator for 20 hr.
(§2) To test BRET probes 10 and 11 against PLK1, HEK293 adherent cells were incubated with either NLuc fused to the N-terminus of PLK1 (NLuc-PLK1) or the C-terminus of PLK1 (PLK1-NLuc) using 1 µM of the BRET probe, and mBRET units were measured. […] NLuc-PLK2 and NLuc-PLK3 were tested with both probes 10 and 11 using the same protocol.

For the next assay, the target named is T2, human PLK3 (NLuc-PLK3) (Homo sapiens, UniProt Q9H4B4).
T2 construct: ORFs corresponding to UniProt isoform 1 (PLK1: P53350-1, PLK2: Q9NYY3-1, and PLK3: Q9H4B4-1); host or cells: HEK293
T2 sequence (Q9H4B4 whole entry, canonical isoform): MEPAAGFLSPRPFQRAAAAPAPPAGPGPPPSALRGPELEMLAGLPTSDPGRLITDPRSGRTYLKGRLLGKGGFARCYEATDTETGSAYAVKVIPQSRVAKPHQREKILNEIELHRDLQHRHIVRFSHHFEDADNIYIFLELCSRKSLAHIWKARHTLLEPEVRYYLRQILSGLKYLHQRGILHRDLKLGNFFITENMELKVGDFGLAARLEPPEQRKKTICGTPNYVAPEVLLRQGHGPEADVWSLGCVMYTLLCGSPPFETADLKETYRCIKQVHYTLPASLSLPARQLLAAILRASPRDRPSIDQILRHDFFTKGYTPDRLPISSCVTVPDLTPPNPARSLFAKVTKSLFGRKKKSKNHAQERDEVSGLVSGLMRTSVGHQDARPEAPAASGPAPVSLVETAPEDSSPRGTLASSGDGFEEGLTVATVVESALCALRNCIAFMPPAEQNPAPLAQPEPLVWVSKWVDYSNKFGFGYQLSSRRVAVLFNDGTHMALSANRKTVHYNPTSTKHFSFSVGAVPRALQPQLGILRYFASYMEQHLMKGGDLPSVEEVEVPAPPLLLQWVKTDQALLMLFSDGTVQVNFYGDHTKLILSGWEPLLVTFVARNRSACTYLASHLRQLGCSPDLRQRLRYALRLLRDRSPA
The assay is described as follows: PLK3 NanoBRET target engagement assay (NLuc-PLK3) in live HEK293 cells. In kind it is cell-based. The following applies: HEK293, probe 11 1.0 µM, 2 h; average of two technical replicates ±15%. As to the method: as §1, §2
(In BRET a luciferase serves as donor, and the signal depends on an acceptor being close.)

Another assay concerns the target T3, human PLK1 (NLuc-PLK1) (Homo sapiens, UniProt P53350).
T3 construct: plasmid DNAs encoding N- and C-terminal fusions of full-length PLK1 with NLuc; host or cells: HEK293
The assay is described as follows: PLK1 NanoBRET target engagement assay (NLuc-PLK1, N-terminal fusion) in live HEK293 cells. The format is cell-based. On the procedure: as §1, with “Briefly, NLuc/PLK fusion constructs were diluted into Transfection Carrier DNA (Promega) at a mass ratio of 1:9 (mass/mass), after which FuGENE HD was added at a ratio of 1:3 (µg DNA: µL FuGENE HD).” left out
as §2
To estimate the half-maximal effective concentration (EC50) of probe 11 to PLK1 in cells, adherent HEK293 cells in a 96-well plate expressing the NLuc-PLK1 fusion protein were mixed with an increasing concentration of BRET probe 11. The resulting BRET ratio was fitted to the sigmoidal 4-parameter dose–response curve using Prism 9.0 (GraphPad, Boston MA, USA).

The target in a further assay is T4, PLK1 (PLK1-NLuc) (Homo sapiens, UniProt P53350).
T4 construct: plasmid DNAs encoding N- and C-terminal fusions of full-length PLK1 with NLuc; host or cells: HEK293
T4 sequence (P53350 whole entry, the tested form may be a part): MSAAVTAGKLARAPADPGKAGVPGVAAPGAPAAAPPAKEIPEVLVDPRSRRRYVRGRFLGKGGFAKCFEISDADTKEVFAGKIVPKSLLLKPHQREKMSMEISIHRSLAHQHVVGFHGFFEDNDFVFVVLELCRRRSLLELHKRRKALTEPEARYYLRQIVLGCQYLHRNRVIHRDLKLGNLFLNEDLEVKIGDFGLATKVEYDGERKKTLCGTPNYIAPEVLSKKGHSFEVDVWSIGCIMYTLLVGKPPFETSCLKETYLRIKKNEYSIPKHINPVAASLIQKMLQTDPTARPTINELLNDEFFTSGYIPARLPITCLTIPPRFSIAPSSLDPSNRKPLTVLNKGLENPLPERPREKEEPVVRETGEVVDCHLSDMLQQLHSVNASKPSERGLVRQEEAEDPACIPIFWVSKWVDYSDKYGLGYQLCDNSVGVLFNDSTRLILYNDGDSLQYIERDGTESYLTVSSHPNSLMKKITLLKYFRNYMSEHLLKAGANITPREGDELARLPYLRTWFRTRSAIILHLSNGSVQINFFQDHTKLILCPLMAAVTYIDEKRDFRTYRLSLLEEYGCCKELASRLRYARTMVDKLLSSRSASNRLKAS
Nature of the assay: BRET probe evaluation with NLuc fused to the C-terminus of PLK1 (PLK1-NLuc) in HEK293 cells. The following applies: 1 µM probe, PLK1-NLuc (C-terminal fusion), adherent HEK293 cells. The format is cell-based. As to the method:
as §1
To test BRET probes 10 and 11 against PLK1, HEK293 adherent cells were incubated with either NLuc fused to the N-terminus of PLK1 (NLuc-PLK1) or the C-terminus of PLK1 (PLK1-NLuc) using 1 µM of the BRET probe, and mBRET units were measured. The combination with the highest mBRET units was selected for further processing. […]

T3 sequence (P53350 whole entry, the tested form may be a part): as above

Consider `C[C@@H](Oc1cc(-n2cnc3ccc(CN4CCN(C)CC4)cc32)sc1C(N)=O)c1ccccc1C(F)(F)F` [GSK461364], for which the IC50 in assay [1] is 0.01 to 0.1 µM.

On to `Cc1ncc(CCCN(C)C)cc1Nc1ncc2c(n1)-c1ccc(C(F)(F)F)cc1NC(=S)C2` [MLN0905], for which the IC50 with PLK1 is 0.002 µM.

Regarding `CN1CCN(c2ccc(OC(F)(F)F)c(Nc3ncc4c(n3)-c3c(c(C(N)=O)nn3CCO)CC4)c2)CC1` [Onvansertib], the IC50 is 0.042 µM in assay [1] and […] with PLK1.

As for `COc1cc(C(=O)NC2CCN(C)CC2)ccc1Nc1ncc2c(n1)N(C1CCCC1)CC(F)(F)C(=O)N2C` [Ro3280], the IC50 was 0.006 to 0.045 µM in assay [1], 0.045 µM on human PLK2 (NLuc-PLK2) and 0.18 µM on human PLK3 (NLuc-PLK3).

As for `CCC1(F)CN(C2CCCC2)c2nc(Nc3ccc(C(=O)NC4CCN(C)CC4)cc3OC)ncc2N(C)C1=O` (stereo not drawn) [TPKI-26], the figures for the IC50 (in assay [1]; on human PLK2 (NLuc-PLK2); against human PLK3 (NLuc-PLK3)) were 0.005 µM, 0.064 µM and 1.7 µM, respectively.

On to `CC[C@@H]1C(=O)N(C)c2cnc(Nc3ccc(C(=O)N[C@H]4CC[C@H](N5CCN(CC6CC6)CC5)CC4)cc3OC)nc2N1C(C)C` [Volasertib], for which the IC50 in assay [1] was 0.011 to 0.037 µM; with PLK1 it was 0.00087 µM; at human PLK1 (NLuc-PLK1) (HEK293, probe 11 0.2 µM, 2 h, average of two technical replicates ±15%, read-out: NanoBRET Target Engagement IC50 PLK1), 0.018 µM; at human PLK2 (NLuc-PLK2) it was 0.023 µM; at human PLK3 (NLuc-PLK3) it was 0.059 µM.

Regarding `CC[C@@H]1C(=O)N(C)c2cnc(Nc3ccc(C(=O)NC4CCNCC4)cc3OC)nc2N1C(C)C` [compound 1, (R)-4-((7-ethyl-8-isopropyl-5-methyl-6-oxo-5,6,7,8-tetrahydropteridin-2-yl)amino)-3-methoxy-N-(piperidin-4-yl)benzamide], the IC50 was determined as 0.203 µM at human PLK1 (NLuc-PLK1) (Probe 11 Conc. 0.1 μM, NLuc-PLK1, ADH format, read-out: apparent IC50); 0.228 µM at human PLK1 (NLuc-PLK1) (Probe 11 Conc. 0.2 μM, NLuc-PLK1, ADH format, read-out: apparent IC50); 0.246 µM at human PLK1 (NLuc-PLK1) (Probe 11 Conc. 0.4 μM, NLuc-PLK1, ADH format, read-out: apparent IC50); 0.285 µM at human PLK1 (NLuc-PLK1) (Probe 11 Conc. 0.6 μM, NLuc-PLK1, ADH format, read-out: apparent IC50); 0.291 µM on human PLK1 (NLuc-PLK1) (Probe 11 Conc. 0.8 μM, NLuc-PLK1, ADH format, read-out: apparent IC50); 0.316 µM at human PLK1 (NLuc-PLK1) (Probe 11 Conc. 1 μM, NLuc-PLK1, ADH format, read-out: apparent IC50). Moreover, the Kd on human PLK1 (NLuc-PLK1) (linearized Cheng–Prusoff analysis, y-intercept of IC50 vs probe 11 concentration, live HEK293 cells, read-out: apparent KD for intracellular target engagement of PLK1) was 0.12 µM.

Regarding `CC[C@@H]1C(=O)N(C)c2cnc(Nc3ccc(C(=O)NC4CCN(C(=O)CCc5ccc6n5[B-](F)(F)[N+]5=C(c7ccc[nH]7)C=CC5=C6)CC4)cc3OC)nc2N1C(C)C` [probe 10, (R)-N-(1-(3-(5,5-difluoro-7-(1H-pyrrol-2-yl)-5H-5^λ,6^λ-dipyrrolo[1,2-c:2’,1’-f][1-3]diazaborinin-3-yl)propanoyl)piperidin-4-yl)-4-((7-ethyl-8-isopropyl-5-methyl-6-oxo-5,6,7,8-tetrahydropteridin-2-yl)amino)-3-methoxybenzamide], the BRET ratio at PLK1 (PLK1-NLuc) is ~ 15; on human PLK1 (NLuc-PLK1) (1 µM probe, NLuc-PLK1, adherent HEK293 cells), ~ 39.
